What was measured:
[1] = molecular target: Mitogen-activated protein kinase kinase kinase 6 (Homo sapiens) (UniProt O95382); conditions: Compound concentration 1000.0 nM
[2] = molecular target: BMP-2-inducible protein kinase (Homo sapiens) (UniProt Q9NSY1); conditions: Compound concentration 1000.0 nM
[3] = molecular target: Bone morphogenetic protein receptor type-2 (Homo sapiens) (UniProt Q13873); conditions: Compound concentration 1000.0 nM
[4] = molecular target: Calcium/calmodulin-dependent protein kinase type 1 (Homo sapiens) (UniProt Q14012); conditions: Compound concentration 1000.0 nM
[5] = molecular target: Calcium/calmodulin-dependent protein kinase type II subunit alpha (Homo sapiens) (UniProt Q9UQM7); conditions: Compound concentration 1000.0 nM
[6] = molecular target: Serine/threonine-protein kinase Chk2 (Homo sapiens) (UniProt O96017); conditions: Compound concentration 1000.0 nM
[7] = molecular target: Casein kinase I isoform delta (Homo sapiens) (UniProt P48730); conditions: Compound concentration 1000.0 nM
[8] = molecular target: Casein kinase I isoform gamma-2 (Homo sapiens) (UniProt P78368); conditions: Compound concentration 1000.0 nM
[9] = molecular target: Casein kinase I isoform gamma-3 (Homo sapiens) (UniProt Q9Y6M4); conditions: Compound concentration 1000.0 nM
[10] = test system: Epidermal growth factor receptor (Homo sapiens), P00533 [T790M]; conditions: Compound concentration 1000.0 nM
[11] = molecular target: Ephrin type-B receptor 2 (Homo sapiens) (UniProt P29323); conditions: Compound concentration 1000.0 nM
[12] = molecular target: Receptor tyrosine-protein kinase erbB-2 (Homo sapiens) (UniProt P04626); conditions: Compound concentration 1000.0 nM
[13] = molecular target: Fibroblast growth factor receptor 2 (Homo sapiens) (UniProt P21802); conditions: Compound concentration 1000.0 nM
[14] = molecular target: Serine/threonine-protein kinase haspin (Homo sapiens) (UniProt Q8TF76); conditions: Compound concentration 1000.0 nM
[15] = test system: Mast/stem cell growth factor receptor Kit (Homo sapiens), P10721 [A829P]; conditions: Compound concentration 1000.0 nM
[16] = molecular target: Tyrosine-protein kinase Lyn (Homo sapiens) (UniProt P07948); conditions: Compound concentration 1000.0 nM
[17] = molecular target: Mitogen-activated protein kinase kinase kinase 15 (Homo sapiens) (UniProt Q6ZN16); conditions: Compound concentration 1000.0 nM
[18] = molecular target: Dual specificity mitogen-activated protein kinase kinase 5 (Homo sapiens) (UniProt Q13163); conditions: Compound concentration 1000.0 nM
[19] = molecular target: Mitogen-activated protein kinase kinase kinase 10 (Homo sapiens) (UniProt Q02779); conditions: Compound concentration 1000.0 nM
[20] = molecular target: Serine/threonine-protein kinase MRCK beta (Homo sapiens) (UniProt Q9Y5S2); conditions: Compound concentration 1000.0 nM
[21] = molecular target: Myosin light chain kinase 2, skeletal/cardiac muscle (Homo sapiens) (UniProt Q9H1R3); conditions: Compound concentration 1000.0 nM
[22] = molecular target: Myosin light chain kinase family member 4 (Homo sapiens) (UniProt Q86YV6); conditions: Compound concentration 1000.0 nM
[23] = molecular target: Serine/threonine-protein kinase Nek2 (Homo sapiens) (UniProt P51955); conditions: Compound concentration 1000.0 nM
[24] = molecular target: Platelet-derived growth factor receptor beta (Homo sapiens) (UniProt P09619); conditions: Compound concentration 1000.0 nM
[25] = test system: Phosphatidylinositol 4,5-bisphosphate 3-kinase catalytic subunit alpha isoform (Homo sapiens), P42336 [E545K]; conditions: Compound concentration 1000.0 nM
[26] = molecular target: Phosphatidylinositol 4,5-bisphosphate 3-kinase catalytic subunit gamma isoform (Homo sapiens) (UniProt P48736); conditions: Compound concentration 1000.0 nM
[27] = molecular target: Phosphatidylinositol 4-kinase beta (Homo sapiens) (UniProt Q9UBF8); conditions: Compound concentration 1000.0 nM
[28] = molecular target: cAMP-dependent protein kinase catalytic subunit beta (Homo sapiens) (UniProt P22694); conditions: Compound concentration 1000.0 nM
[29] = molecular target: Serine/threonine-protein kinase PLK2 (Homo sapiens) (UniProt Q9NYY3); conditions: Compound concentration 1000.0 nM
[30] = molecular target: Protein kinase C iota type (Homo sapiens) (UniProt P41743); conditions: Compound concentration 1000.0 nM
[31] = molecular target: Ribosomal protein S6 kinase alpha-5 (Homo sapiens) (UniProt O75582); conditions: Compound concentration 1000.0 nM
[32] = molecular target: Tyrosine-protein kinase Srms (Homo sapiens) (UniProt Q9H3Y6); conditions: Compound concentration 1000.0 nM
[33] = molecular target: Serine/threonine-protein kinase tousled-like 1 (Homo sapiens) (UniProt Q9UKI8); conditions: Compound concentration 1000.0 nM
[34] = molecular target: Non-receptor tyrosine-protein kinase TNK1 (Homo sapiens) (UniProt Q13470); conditions: Compound concentration 1000.0 nM
[35] = molecular target: Serine/threonine-protein kinase TNNI3K (Homo sapiens) (UniProt Q59H18); conditions: Compound concentration 1000.0 nM
[36] = molecular target: Tyrosine-protein kinase ZAP-70 (Homo sapiens) (UniProt P43403); conditions: Compound concentration 1000.0 nM
[37] = molecular target: 5-hydroxytryptamine receptor 2B (Homo sapiens) (UniProt P41595); conditions: Compound concentration 10.0 uM
[38] = molecular target: T1, 5-hydroxytryptamine receptor 3A (Homo sapiens) (UniProt P46098); conditions: Compound concentration 10.0 uM
T1 sequence (whole entry): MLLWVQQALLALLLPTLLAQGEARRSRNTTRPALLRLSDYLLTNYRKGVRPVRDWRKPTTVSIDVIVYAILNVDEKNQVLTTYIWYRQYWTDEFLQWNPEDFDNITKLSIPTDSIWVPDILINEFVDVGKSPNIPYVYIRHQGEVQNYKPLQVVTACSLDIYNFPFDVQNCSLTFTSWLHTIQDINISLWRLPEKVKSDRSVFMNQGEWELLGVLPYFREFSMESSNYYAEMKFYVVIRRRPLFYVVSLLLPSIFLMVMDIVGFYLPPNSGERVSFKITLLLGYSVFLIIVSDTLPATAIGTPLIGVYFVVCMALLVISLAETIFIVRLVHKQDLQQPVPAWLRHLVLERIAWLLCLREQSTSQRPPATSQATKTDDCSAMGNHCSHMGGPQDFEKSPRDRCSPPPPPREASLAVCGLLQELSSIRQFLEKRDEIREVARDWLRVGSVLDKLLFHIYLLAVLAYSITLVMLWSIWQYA

[39] = molecular target: Beta-3 adrenergic receptor (Homo sapiens) (UniProt P13945); conditions: Compound concentration 10.0 uM

Serine/threonine-protein kinase PLK2 (Homo sapiens), sequence (Q9NYY3 whole entry, looked up): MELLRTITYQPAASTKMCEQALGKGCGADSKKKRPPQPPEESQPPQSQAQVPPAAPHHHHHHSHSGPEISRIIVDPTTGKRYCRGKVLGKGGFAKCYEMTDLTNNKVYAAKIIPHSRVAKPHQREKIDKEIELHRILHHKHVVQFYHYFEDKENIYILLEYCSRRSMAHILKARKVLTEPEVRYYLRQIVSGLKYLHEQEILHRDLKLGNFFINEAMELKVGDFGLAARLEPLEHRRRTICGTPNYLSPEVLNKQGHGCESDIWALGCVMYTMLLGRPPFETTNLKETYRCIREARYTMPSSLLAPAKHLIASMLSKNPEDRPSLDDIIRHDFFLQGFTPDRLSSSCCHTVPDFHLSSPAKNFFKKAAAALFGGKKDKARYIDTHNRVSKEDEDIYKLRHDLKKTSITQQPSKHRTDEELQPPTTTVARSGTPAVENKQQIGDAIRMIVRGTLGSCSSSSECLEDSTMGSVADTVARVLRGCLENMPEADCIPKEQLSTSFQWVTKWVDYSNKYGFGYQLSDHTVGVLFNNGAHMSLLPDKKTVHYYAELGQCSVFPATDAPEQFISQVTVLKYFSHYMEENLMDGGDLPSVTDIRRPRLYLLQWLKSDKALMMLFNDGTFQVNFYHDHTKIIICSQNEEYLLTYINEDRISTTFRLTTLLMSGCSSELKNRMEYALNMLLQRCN
5-hydroxytryptamine receptor 2B (Homo sapiens), sequence (P41595 whole entry): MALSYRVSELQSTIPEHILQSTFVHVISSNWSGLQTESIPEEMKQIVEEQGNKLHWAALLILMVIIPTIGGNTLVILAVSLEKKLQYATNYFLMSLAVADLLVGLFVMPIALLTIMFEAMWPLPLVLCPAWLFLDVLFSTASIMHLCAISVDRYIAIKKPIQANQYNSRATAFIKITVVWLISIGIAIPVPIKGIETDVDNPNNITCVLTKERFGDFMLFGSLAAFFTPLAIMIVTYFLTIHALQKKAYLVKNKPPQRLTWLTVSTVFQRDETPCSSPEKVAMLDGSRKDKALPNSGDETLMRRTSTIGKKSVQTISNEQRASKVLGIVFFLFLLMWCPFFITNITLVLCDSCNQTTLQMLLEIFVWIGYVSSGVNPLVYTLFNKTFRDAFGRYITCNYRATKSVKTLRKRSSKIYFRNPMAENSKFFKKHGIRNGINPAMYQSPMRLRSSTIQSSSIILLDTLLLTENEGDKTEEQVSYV
Myosin light chain kinase family member 4 (Homo sapiens), sequence (Q86YV6 whole entry): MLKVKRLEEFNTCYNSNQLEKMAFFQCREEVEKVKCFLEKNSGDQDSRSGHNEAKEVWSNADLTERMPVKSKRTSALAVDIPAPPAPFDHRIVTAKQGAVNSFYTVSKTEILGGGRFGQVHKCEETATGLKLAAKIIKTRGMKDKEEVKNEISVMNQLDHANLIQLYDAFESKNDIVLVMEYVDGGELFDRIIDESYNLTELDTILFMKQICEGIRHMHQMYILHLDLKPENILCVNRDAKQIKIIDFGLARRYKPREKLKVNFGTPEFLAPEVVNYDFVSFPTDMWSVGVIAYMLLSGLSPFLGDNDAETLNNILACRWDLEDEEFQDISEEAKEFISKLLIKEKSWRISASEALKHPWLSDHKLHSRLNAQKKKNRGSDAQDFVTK
Protein kinase C iota type (Homo sapiens), sequence (P41743 whole entry): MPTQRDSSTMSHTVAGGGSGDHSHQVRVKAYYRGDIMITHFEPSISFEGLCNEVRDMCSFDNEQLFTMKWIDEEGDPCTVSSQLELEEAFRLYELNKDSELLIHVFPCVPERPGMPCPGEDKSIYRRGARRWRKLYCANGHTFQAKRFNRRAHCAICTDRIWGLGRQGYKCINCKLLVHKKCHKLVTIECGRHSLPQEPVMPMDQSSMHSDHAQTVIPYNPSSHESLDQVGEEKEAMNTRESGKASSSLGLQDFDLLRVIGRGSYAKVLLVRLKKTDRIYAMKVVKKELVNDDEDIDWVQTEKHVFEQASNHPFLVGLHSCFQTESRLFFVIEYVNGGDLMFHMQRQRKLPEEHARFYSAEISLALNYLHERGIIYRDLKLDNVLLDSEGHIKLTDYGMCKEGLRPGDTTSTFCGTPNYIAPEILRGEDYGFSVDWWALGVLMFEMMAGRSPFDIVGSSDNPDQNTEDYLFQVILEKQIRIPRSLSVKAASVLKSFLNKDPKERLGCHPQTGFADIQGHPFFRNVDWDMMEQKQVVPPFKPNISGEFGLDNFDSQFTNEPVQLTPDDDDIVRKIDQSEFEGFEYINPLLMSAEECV
Serine/threonine-protein kinase Nek2 (Homo sapiens), sequence (P51955 whole entry): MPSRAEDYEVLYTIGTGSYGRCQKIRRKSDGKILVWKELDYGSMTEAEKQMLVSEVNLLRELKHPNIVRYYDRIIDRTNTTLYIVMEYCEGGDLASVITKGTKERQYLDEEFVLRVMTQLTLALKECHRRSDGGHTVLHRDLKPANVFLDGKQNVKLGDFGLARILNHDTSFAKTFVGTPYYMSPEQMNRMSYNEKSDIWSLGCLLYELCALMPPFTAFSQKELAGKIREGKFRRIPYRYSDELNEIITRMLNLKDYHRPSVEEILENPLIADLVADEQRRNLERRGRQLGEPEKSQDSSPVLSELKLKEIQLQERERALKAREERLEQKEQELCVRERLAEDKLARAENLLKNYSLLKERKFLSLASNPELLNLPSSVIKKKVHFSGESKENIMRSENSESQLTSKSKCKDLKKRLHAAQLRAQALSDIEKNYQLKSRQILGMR
Platelet-derived growth factor receptor beta (Homo sapiens), sequence (P09619 whole entry, canonical isoform): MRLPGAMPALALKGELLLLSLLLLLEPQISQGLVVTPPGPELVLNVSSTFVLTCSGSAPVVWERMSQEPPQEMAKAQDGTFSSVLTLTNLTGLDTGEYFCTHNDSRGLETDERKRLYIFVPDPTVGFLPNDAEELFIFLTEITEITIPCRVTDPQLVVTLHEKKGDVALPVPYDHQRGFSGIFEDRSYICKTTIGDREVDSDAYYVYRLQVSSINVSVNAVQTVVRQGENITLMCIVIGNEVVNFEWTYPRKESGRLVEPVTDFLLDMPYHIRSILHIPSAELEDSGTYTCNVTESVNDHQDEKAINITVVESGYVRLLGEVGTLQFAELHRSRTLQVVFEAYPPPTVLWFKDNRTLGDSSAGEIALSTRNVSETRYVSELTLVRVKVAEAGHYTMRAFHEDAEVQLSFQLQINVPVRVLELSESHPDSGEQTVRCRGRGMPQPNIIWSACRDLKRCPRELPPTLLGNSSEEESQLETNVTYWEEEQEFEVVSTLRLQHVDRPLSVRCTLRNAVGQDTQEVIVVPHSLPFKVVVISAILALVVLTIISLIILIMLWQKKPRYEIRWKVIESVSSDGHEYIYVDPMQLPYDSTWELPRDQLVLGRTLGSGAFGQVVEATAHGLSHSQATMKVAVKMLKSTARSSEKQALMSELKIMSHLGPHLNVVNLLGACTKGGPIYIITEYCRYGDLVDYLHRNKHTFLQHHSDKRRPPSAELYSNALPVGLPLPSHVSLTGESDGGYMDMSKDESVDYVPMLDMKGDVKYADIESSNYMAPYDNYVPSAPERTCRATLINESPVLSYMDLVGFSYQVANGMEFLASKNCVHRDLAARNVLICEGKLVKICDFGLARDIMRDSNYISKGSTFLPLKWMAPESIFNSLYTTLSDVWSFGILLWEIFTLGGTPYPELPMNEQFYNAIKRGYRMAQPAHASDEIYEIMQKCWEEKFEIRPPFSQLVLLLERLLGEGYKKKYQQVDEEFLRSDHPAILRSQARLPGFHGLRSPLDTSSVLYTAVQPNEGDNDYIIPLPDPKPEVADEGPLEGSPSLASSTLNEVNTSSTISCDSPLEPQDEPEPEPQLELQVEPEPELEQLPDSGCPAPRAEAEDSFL
Serine/threonine-protein kinase TNNI3K (Homo sapiens), sequence (Q59H18 whole entry): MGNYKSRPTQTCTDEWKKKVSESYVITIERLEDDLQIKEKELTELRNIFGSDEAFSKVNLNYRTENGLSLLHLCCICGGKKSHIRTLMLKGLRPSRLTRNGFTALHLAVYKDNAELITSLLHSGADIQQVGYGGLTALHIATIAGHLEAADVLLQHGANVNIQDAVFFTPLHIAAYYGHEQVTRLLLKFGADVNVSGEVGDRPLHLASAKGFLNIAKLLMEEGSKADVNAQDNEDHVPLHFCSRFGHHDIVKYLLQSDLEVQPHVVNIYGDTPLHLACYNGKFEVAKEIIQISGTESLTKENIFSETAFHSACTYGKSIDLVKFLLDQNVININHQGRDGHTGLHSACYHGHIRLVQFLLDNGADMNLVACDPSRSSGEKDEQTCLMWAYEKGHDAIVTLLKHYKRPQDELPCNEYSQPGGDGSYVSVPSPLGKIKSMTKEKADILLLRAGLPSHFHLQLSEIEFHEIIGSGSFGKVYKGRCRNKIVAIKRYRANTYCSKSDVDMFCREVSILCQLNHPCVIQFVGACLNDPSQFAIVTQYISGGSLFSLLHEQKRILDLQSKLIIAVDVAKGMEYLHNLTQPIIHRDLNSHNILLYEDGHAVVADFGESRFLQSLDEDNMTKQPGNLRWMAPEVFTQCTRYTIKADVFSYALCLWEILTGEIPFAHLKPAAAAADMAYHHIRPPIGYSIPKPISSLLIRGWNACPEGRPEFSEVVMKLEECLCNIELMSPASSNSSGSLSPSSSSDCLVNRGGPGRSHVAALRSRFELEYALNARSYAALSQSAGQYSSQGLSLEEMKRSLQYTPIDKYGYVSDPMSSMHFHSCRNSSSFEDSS
Dual specificity mitogen-activated protein kinase kinase 5 (Homo sapiens), sequence (Q13163 whole entry): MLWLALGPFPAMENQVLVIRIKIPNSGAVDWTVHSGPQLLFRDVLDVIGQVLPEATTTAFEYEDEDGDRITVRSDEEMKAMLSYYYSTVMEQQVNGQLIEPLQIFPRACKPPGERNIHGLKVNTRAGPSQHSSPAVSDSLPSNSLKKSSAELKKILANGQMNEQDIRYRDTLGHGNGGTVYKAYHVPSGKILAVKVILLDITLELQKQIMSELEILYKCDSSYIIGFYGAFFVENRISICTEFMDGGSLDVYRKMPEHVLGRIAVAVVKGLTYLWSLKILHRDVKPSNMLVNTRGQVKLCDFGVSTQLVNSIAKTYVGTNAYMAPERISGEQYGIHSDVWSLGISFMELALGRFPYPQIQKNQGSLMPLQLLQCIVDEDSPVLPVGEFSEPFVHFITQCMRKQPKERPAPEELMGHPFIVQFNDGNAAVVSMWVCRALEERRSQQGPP

Q: Which results are given for `CCS(=O)(=O)c1cc2cc(C[C@@](O)(CC(C)(C)c3ccc(F)cc3C(N)=O)C(F)(F)F)[nH]c2cn1`?
A: residual activity [1]: 100%; residual activity [2]: 69%; residual activity [3]: 91%; residual activity [4]: 57%; residual activity [5]: 100%; residual activity [6]: 84%; residual activity [7]: 100%; residual activity [8]: 95%; residual activity [9]: 100%; residual activity [10]: 88%; residual activity [11]: 95%; residual activity [12]: 100%; residual activity [13]: 95%; residual activity [14]: 80%; residual activity [15]: 73%; residual activity [16]: 100%; residual activity [17]: 57%; residual activity [18]: 81%; residual activity [19]: 65%; residual activity [20]: 99%; residual activity [21]: 100%; residual activity [22]: 100%; residual activity [23]: 94%; residual activity [24]: 100%; residual activity [25]: 79%; residual activity [26]: 78%; residual activity [27]: 100%; residual activity [28]: 99%; residual activity [29]: 100%; residual activity [30]: 100%; residual activity [31]: 69%; residual activity [32]: 72%; residual activity [33]: 0%; residual activity [34]: 100%; residual activity [35]: 100%; residual activity [36]: 72%; inhibition [37]: -7.85%; inhibition [38]: 21.1%; inhibition [39]: 0.63%

Q: For `CCS(=O)(=O)c1cc2cc(C[C@](O)(CC(C)(C)c3ccc(F)cc3C(N)=O)C(F)(F)F)[nH]c2cn1`, which residual activity [1] is on record?
A: 55%

Q: And the residual activity [2]?
A: 83%

Q: And the residual activity [3]?
A: 100%

Q: And the residual activity [4]?
A: 86%

Q: What about the residual activity [5] of the same compound?
A: 94%

Q: And the residual activity [6]?
A: 92%

Q: And the residual activity [7]?
A: 96%

Q: What about the residual activity [8] of the same compound?
A: 93%

Q: And the residual activity [9]?
A: 100%

Q: What about the residual activity [10] of the same compound?
A: 78%

Q: And the residual activity [11]?
A: 100%

Q: What about the residual activity [12] of the same compound?
A: 100%

Q: What about the residual activity [13] of the same compound?
A: 100%

Q: And the residual activity [14]?
A: 100%

Q: And the residual activity [15]?
A: 89%

Q: What about the residual activity [16] of the same compound?
A: 100%

Q: What about the residual activity [17] of the same compound?
A: 97%

Q: What about the residual activity [18] of the same compound?
A: 100%

Q: What about the residual activity [19] of the same compound?
A: 100%

Q: What about the residual activity [20] of the same compound?
A: 100%

Q: What about the residual activity [21] of the same compound?
A: 98%

Q: What about the residual activity [22] of the same compound?
A: 100%

Q: What about the residual activity [23] of the same compound?
A: 100%

Q: What about the residual activity [24] of the same compound?
A: 100%

Q: What about the residual activity [25] of the same compound?
A: 80%

Q: And the residual activity [26]?
A: 80%

Q: What about the residual activity [27] of the same compound?
A: 100%

Q: And the residual activity [28]?
A: 100%

Q: And the residual activity [29]?
A: 91%

Q: And the residual activity [30]?
A: 100%

Q: And the residual activity [31]?
A: 100%

Q: What about the residual activity [32] of the same compound?
A: 83%

Q: What about the residual activity [33] of the same compound?
A: 75%

Q: What about the residual activity [34] of the same compound?
A: 98%

Q: And the residual activity [35]?
A: 80%

Q: And the residual activity [36]?
A: 71%

Q: What about the inhibition [37] of the same compound?
A: 26.1%

Q: And the inhibition [38]?
A: 32.2%

Q: And the inhibition [39]?
A: 13%

— ChEMBL document CHEMBL4507277
